Values of other authors in patent US20040132663A1 (University of Utah Research Foundation, priority 2000, published 2004).

Details: in vivo

Substance: contulakin-G
- potency in inhibiting pain relative to neurotensin: significantly more potent than neurotensin
